Where two headings read alike, the source gives them in different places.
How the values were obtained:
[1] = target: T1, DPP4 (Homo sapiens, UniProt P27487); assay type: biochemical
T1 construct: purchased

[2] = target: T2, Cathepsin L (Homo sapiens, UniProt P07711); assay type: biochemical
T2 construct: purchased
T2 sequence (P07711 114-333): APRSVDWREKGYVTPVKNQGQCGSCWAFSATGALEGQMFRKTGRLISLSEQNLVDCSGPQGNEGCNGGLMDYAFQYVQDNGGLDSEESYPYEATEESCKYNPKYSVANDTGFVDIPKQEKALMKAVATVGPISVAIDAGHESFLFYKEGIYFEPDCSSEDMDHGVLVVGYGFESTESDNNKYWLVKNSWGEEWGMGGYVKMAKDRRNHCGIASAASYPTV

T1 sequence (P27487 whole entry): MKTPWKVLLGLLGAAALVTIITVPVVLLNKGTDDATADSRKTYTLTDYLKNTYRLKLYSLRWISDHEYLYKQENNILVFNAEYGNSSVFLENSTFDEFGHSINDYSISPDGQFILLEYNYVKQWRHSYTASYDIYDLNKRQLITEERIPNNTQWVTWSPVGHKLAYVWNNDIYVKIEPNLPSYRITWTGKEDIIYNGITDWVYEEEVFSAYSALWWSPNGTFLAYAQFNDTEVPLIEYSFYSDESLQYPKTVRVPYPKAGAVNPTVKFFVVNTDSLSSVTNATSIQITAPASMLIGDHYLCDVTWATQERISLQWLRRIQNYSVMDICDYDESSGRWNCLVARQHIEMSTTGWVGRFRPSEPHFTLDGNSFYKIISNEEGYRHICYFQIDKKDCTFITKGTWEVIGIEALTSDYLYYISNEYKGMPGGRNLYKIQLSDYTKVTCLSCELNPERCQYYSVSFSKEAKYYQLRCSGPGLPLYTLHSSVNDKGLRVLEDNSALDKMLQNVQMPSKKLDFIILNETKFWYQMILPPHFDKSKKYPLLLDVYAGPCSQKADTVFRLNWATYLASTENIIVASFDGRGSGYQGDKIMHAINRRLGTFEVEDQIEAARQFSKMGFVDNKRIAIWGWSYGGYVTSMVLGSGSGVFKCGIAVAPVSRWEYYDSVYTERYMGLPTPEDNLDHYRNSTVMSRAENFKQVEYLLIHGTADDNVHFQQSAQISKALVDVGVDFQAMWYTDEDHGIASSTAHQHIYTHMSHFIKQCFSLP

Compound	% Inhibition wrt Enzyme Control ([1]; 0.001 μM)	% Inhibition wrt Enzyme Control ([1]; 0.01 μM)	% Inhibition wrt Enzyme Control ([1]; 0.1 µM)	% Inhibition wrt Enzyme Control ([1]; 1 µM)	% Inhibition wrt Enzyme Control ([2]; 0.0001 μM)	% Inhibition wrt Enzyme Control ([2]; 0.01 μM)	% Inhibition wrt Enzyme Control ([2]; 0.1 µM)
CC(C)C[C@H](NC(=O)OCc1ccccc1)C(=O)N[C@@H](C[C@@H]1CCNC1=O)C(O)S(=O)(=O)[O-].[Na+] (stereo partly shown) [GC376]	32.4%	76.2%	87.1%	99.5%			
CC(C)C[C@H](NC(=O)[C@H]1O[C@@H]1C(=O)O)C(=O)NCCCCN=C(N)N [E-64]					7.4%	24.2%	61.0%

Source: patent publication US20250041380A1, “R[…] FOR SARS-COV2 DISEASE” (priority 2021, published 2025)
